Measurements from US20240279613A1, “METHOD OF PRODUCING ENTEROENDOCRINE CELL, ENTEROENDOCRINE CELL DERIVED FROM PLURIPOTENT STEM CELL, CULTURE MEDIUM OR CULTURE MEDIUM KIT, AND USE THEREOF” (FUJIFILM Corporation, priority 2021, published 2024).

Columns and labels:
[1] = tested on: Human iPS cell-derived intestinal epithelial cells F-hiSIEC; assay: Gene expression of EEC markers in F-hiSIEC cells cultured in culture media of Table 1 (real-time PCR, Day 9); type: cell-based; settings: LY411575 (composition 4, 1 μmol/L, no EGF) compared with DAPT (composition 6, 10 μmol/L)
Source text: (§1) Human iPS cell-derived intestinal epithelial cells (including intestinal stem cells, LGR5+ cells) F-hiSIEC™ (FUJIFILM Corporation) were thawed on the day 0 and seeded at 1.0×10^6 cells/well on a cell culture insert coated with Matrigel™ (Corning Incorporated) by using F-hiSIEC™ Seeding Medium (FUJIFILM Corporation), and then from the next day, the culture medium was exchanged every other day with each culture medium (culture medium compositions 1 to 6) in Table 1. Coating, seeding, and culture medium exchange were carried out according to the F-hiSIEC instruction manual to obtain a cell sheet. The total RNA was extracted from the cells on the Day 9. For RNA extraction, the cells were lysed with Qiazol (QIAGEN), 20% of chloroform was added thereto, mixed, and centrifuged at 12,000 g for 10 minutes to obtain a solution, and the supernatant of the solution was recovered. Total RNA was extracted from the supernatant according to the manual using an RNeasy mini kit (QIAGEN). cDNA was synthesized from the total RNA using a High Capacity RNA-to-cDNA kit (Applied Biosystems) according to the manual. The obtained cDNA was subjected to the measurement of the gene expression level by using a ViiA7 real-time PCR system (Applied Biosystems) with a Taqman Gene Expression Assay system and a Taqman Gene Expression Master Mix (Applied Biosystems). The Taqman Assay ID used were as follows: 18s: 03003631_g1, CHGA: Hs00900370_m1, TPH1: Hs00188220_m1, PYY: Hs00373890_g1, and REG4: Hs00230746_m1.
(§2) Gene expression levels for comparison are indicated in terms of relative value in a case where the expression in the control group cultured in the F-hiSIEC Culture Medium is corrected with the expression level of the internal standard gene 18S according to the […] and then is set to 1.

[2] = tested on: Human iPS cell-derived intestinal epithelial cells F-hiSIEC; assay: Gene expression of EEC markers in F-hiSIEC cells cultured with LY411575 or DAPT added (culture media of Table 2, real-time PCR, Day 9); type: cell-based
Source text: as §1, with “compositions 7” for “compositions 1”, “to 13)” for “to 6)”, “Table 2.” for “Table 1.”, “18s: 03003631_g1.” for “18s: 03003631_g1,”, “CHGA: Hs00900370_m1.” for “CHGA: Hs00900370_m1, TPH1: Hs00188220_m1,”, “and NEUROG3: Hs01875204_s1.” for “and REG4: Hs00230746_m1.”
as §2

[3] = LY411575 2 μmol/L addition group (culture medium composition 11), among compositions 7 to 13
[4] = LY411575 addition groups (0.5 to 2.0 μmol/L) compared with DAPT addition groups (5 to 10 μmol/L), no EGF, FIG. 2

For `C[C@H](NC(=O)[C@@H](O)c1cc(F)cc(F)c1)C(=O)N[C@@H]1C(=O)N(C)c2ccccc2-c2ccccc21` [LY411575], the “expression of CHGA” value [1] was “remarkably high”, the “expression of PYY” value [1] was “remarkably high” and the “expression of Reg4” value [1] was “remarkably high”. For the same compound, the “expression of TPH1” value [1] was “remarkably high”, the “expression level of CHGA” value [2, 3] was “highest” and the “expression level of NEUROG3” value [2, 3] was “highest”. For the same compound, the “expression level of PYY” value [2, 3] was “highest”, the “expression of CHGA” value [2, 4] was “high” and the “expression of PYY” value [2, 4] was “remarkably high”.
